The text below walks through data of ChEMBL document CHEMBL4825710, “Antibacterial activity of β-sitosterol isolated from the leaves of Odontonema strictum (Acanthaceae)” (2021).

Test [1] concerns Streptococcus pyogenes. Nature of the test: Antibacterial activity against Streptococcus pyogenes assessed as bacterial growth inhibition. In kind it is functional.
Test [2] has as its system Salmonella typhi. Nature of the test: Antibacterial activity against Salmonella typhi assessed as bacterial growth inhibition. The following applies: Salmonella enterica. In kind it is functional, Salmonella enterica subsp. enterica serovar Typhi.
In test [3] the test system is Bacillus subtilis. Nature of the test: Antibacterial activity against Bacillus subtilis assessed as bacterial growth inhibition at 12.5 ug/ml. In kind it is functional, organism-based. The following applies: dose 12.5 µg/ml.
Test [4] concerns Streptococcus pyogenes. Nature of the test: Antibacterial activity against Streptococcus pyogenes assessed as bacterial growth inhibition at 12.5 ug/ml. In kind it is functional, organism-based. The following applies: dose 12.5 µg/ml.
Test [5] concerns Staphylococcus aureus. Nature of the test: Antibacterial activity against Staphylococcus aureus assessed as bacterial growth inhibition at 12.5 ug/ml. Type of test: functional, organism-based. As to conditions: dose 12.5 µg/ml.
Test [6] deals with Staphylococcus aureus. Nature of the test: Antibacterial activity against Staphylococcus aureus assessed as bacterial growth inhibition. Type of test: functional.
For test [7], the system named is Proteus vulgaris. Nature of the test: Antibacterial activity against Proteus vulgaris assessed as bacterial growth inhibition at 12.5 ug/ml. Type of test: functional, organism-based. As to conditions: dose 12.5 µg/ml.
The test system of a further test is Corynebacterium ulcerans. Nature of the test: Antibacterial activity against Corynebacterium ulcerans assessed as bacterial growth inhibition. Type of test: functional.
The test system of test [8] is Pseudomonas aeruginosa. Nature of the test: Antibacterial activity against Pseudomonas aeruginosa assessed as bacterial growth inhibition. In kind it is functional.
The subject of test [9] is Shigella dysenteriae. Nature of the test: Antibacterial activity against Shigella dysenteriae assessed as bacterial growth inhibition. In kind it is functional.
The test system of test [10] is Staphylococcus aureus. Nature of the test: Bactericidal activity against Staphylococcus aureus. Type of test: functional.
For test [11], the system named is Candida albicans. Nature of the test: Antifungal activity against Candida albicans assessed as fungal growth inhibition. Type of test: functional.
Test [12] has as its system Shigella dysenteriae. Nature of the test: Antibacterial activity against Shigella dysenteriae assessed as bacterial growth inhibition at 12.5 ug/ml. Type of test: functional, organism-based. The following applies: dose 12.5 µg/ml.
Test [13] has as its system Salmonella typhi. Nature of the test: Antibacterial activity against Salmonella typhi assessed as bacterial growth inhibition at 12.5 ug/ml. In kind it is functional, organism-based. The following applies: Salmonella enterica subsp. enterica serovar Typhi; dose 12.5 µg/ml.
Test [14] relates to Bacillus subtilis. Nature of the test: Antibacterial activity against Bacillus subtilis assessed as bacterial growth inhibition. Type of test: functional.
Another test relates to Corynebacterium. Nature of the test: Antibacterial activity against Corynebacterium assessed as bacterial growth inhibition at 12.5 ug/ml. In kind it is functional, organism-based. The following applies: dose 12.5 µg/ml.
Test [15] relates to Proteus vulgaris. Nature of the test: Antibacterial activity against Proteus vulgaris assessed as bacterial growth inhibition. In kind it is functional.
Test [16] deals with Staphylococcus aureus. Nature of the test: Antibacterial activity against Staphylococcus aureus assessed as inhibition of bacterial growth measured after 24 hrs by serial dilution method. In kind it is functional.
For test [17], the system named is Pseudomonas aeruginosa. Nature of the test: Antibacterial activity against Pseudomonas aeruginosa assessed as bacterial growth inhibition at 12.5 ug/ml. Type of test: functional, organism-based. The following applies: dose 12.5 µg/ml.
In test [18] the test system is Candida albicans. Nature of the test: Antifungal activity against Candida albicans assessed as fungal growth inhibition at 12.5 ug/ml. In kind it is functional, organism-based. As to conditions: dose 12.5 µg/ml.

Each structure is given as a SMILES string. Values after ≈ are worked out from the molar mass of the structure shown. Active and inactive are the calls of the source.

For `CC[C@H](CC[C@@H](C)[C@H]1CC[C@H]2[C@@H]3CC=C4C[C@@H](O)CC[C@]4(C)[C@H]3CC[C@]12C)C(C)C` [BETA-SITOSTEROL], the MBC in the test with Streptococcus pyogenes [1] is 50 µg/mL (≈ 121 µM); in the test with Salmonella typhi [2] it was 25 µg/mL (≈ 60.3 µM); in the test on Staphylococcus aureus [6] it was 50 µg/mL (≈ 121 µM); in the test on Corynebacterium ulcerans, 25 µg/mL (≈ 60.3 µM); with Pseudomonas aeruginosa [8] it was 50 µg/mL (≈ 121 µM); with Shigella dysenteriae [9] it was 50 µg/mL (≈ 121 µM). Besides, the MBC with Staphylococcus aureus [10] was determined as 2210 µg/mL (≈ 5320 µM); in the test on Bacillus subtilis [14], 25 µg/mL (≈ 60.3 µM); in the test with Proteus vulgaris [15], 50 µg/mL (≈ 121 µM). Also, the “growth inhibition (GI)” value in the test with Bacillus subtilis [3], in the test with Streptococcus pyogenes [4], with Staphylococcus aureus [5], in the test on Proteus vulgaris [7], with Shigella dysenteriae [12] and in the test with Salmonella typhi [13] was “Active” each time. For the same compound, the “growth inhibition (GI)” value in the test with Corynebacterium, with Pseudomonas aeruginosa [17] and with Candida albicans [18] was “Active” each time. Besides, in the test with Candida albicans [11], the MFC was 50 µg/mL (≈ 121 µM). Further, the MIC with Staphylococcus aureus [16] was determined as 1240 µg/mL (≈ 2990 µM).

As usually defined, the MBC is the lowest tested concentration that kills the bacteria rather than only halting them. By MFC is commonly meant the smallest concentration meeting the test's criterion for killing the fungus. In general, MIC refers to the smallest concentration in the dilution series that meets the test's criterion for growth inhibition.
